Experimental data published in patent US20130296434A1, “FORMULATIONS AND METHODS FOR TREATING AMYLOIDOSIS” (Kiacta Sarl, priority 2005, published 2013).

Legend:
[1] = Pharmacokinetics of single and repeated oral doses of PDS in healthy male subjects; format: in vivo, human; details: for AUC(0-t) / Cmax / Tmax: male, po, n = 6; for AUC(0-t) / Cmax: mean; for Tmax: median
Source text: (§1) In the following examples, terms are as defined below. The pharmacokinetic parameters were derived by non-compartmental analysis using WinNonlin® (Pharsight Corp., Mountain View, Calif., USA). • Cmax—the maximum observed plasma concentration. • Tmax—the time of occurrence of Cmax. • AUC0-t—the area under the plasma concentration versus time curve from time zero to the last sampling time at which concentrations were at or above the limit of quantification, calculated by the linear trapezoidal rule. • AUC∞—the area under the plasma concentrations versus time curve from time zero to infinity, calculated from AUC0-t+(Clast/λz), where Clast is the last observed quantifiable concentration and λz is the apparent terminal rate constant. • t1/2 the apparent terminal half-life, calculated from ln 2/λz
The safety, tolerability and pharmacokinetics of PDS following multiple rising oral doses in healthy male adult volunteers is determined. This is a randomized, double-blind, placebo-controlled study to assess the pharmacokinetic profile of single and repeated oral doses of PDS at 400, 800 and 1600 mg in healthy male subjects. PDS is administered as a single oral dose to healthy male subjects at 400, 800 and 1600 mg on Days 1 and 7. Following the single oral administration on Day 1, PDS is administered on Days 2, 3, 4, 5 and 6 at 400, 800 and 1600 mg four times daily, or 1600 mg three times daily. Blood samples are collected through 24 hours after the dose on Day 1, before the first and last doses on Days 2 through 6, and after 48 hours after the final dose on Day 7. Plasma concentrations of PDS are determined using validated HPLC methods. Following single and repeated oral doses of PDS maximum plasma concentrations are generally reached within 0.25 to 1 hour post-dose. The mean half-life (T1/2) ranges from 5 to 20 hours after single or multiple dosing. Accumulation after multiple dosing is consistent with the T1/2 and dosing frequency.

[2] = Pharmacokinetic profile of a single oral dose of 800 mg PDS in subjects with varying degrees of renal impairment vs healthy volunteers; format: in vivo; details: human, plasma, single oral 800 mg; for AUC(0-inf): mean, only subjects with estimable elimination rate constant; for AUC(0-t): read-out: AUC0-Tlast
Description: An open-label, non-randomized, parallel group study to assess the pharmacokinetic profile of a single oral dose of 800 mg 1,3-propanedisulfonic acid disodium salt (PDS) in subjects with varying degrees of renal impairment as compared to healthy volunteers is conducted. Blood and urine samples are collected for 24 hours following dosing. Plasma and urine concentrations in 1,3-propanedisulfonic acid are determined using validated HPLC methods. […] Consequently, a decrease in dose appears to be necessary to maintain an acceptable systemic exposure in patients with impaired renal function.

[3] = Pharmacokinetics of PDS after single and multiple oral administration in AA amyloidosis patients; format: in vivo; details: human, plasma; for AUC(0-t) / Cmax / half-life: po; for half-life: multiple dose oral administration
Source text: as §1
The safety, efficacy and pharmacokinetics of PDS after single and multiple oral administration in subjects with AA amyloidosis is determined. This is a multicenter, multinational, randomized, double-blind, placebo-controlled, and parallel-design study to assess the pharmacokinetic profile of single and repeated doses of PDS. Dosing depends on the severity or renal impairment in a subject: subjects having creatinine clearance (ClCr)>80 mL/min receive 1200 mg BID; for ClCr between 30 and 80 mL/min, the subject receives 800 mg BID; and for ClCr between 20 and 30 mL/min, the subject receives 400 mg BID. If ClCr decreases to the next lower range level, the dose regimen is adjusted accordingly. PDS is administered as a single oral dose for a subset of AA amyloidosis patients on Month 0 and 24 visits. Following the single administration on Month 0, PDS is administered twice daily for 24 months. Blood samples are collected through 24 hours after the doses on Month 0 and 24, and through 8 hours after the doses on Month 4, 8, 12 visits. Plasma concentrations of PDS are determined using validated HPLC methods. Following multiple dose oral administration of PDS, the range of accumulation across subjects is 1.75 to 3.44. Based on the accumulation factor, the mean T1/2 calculated is 15 hours with a range of 10 to 24 hours.

[4] = human, plasma, 400 mg, 400 mg q.i.d. group, Day 1 (single oral administration)
[5] = human, plasma, 400 mg, 400 mg q.i.d., Day 7 (repeated oral administration)
[6] = human, plasma, 800 mg, 800 mg q.i.d. group, Day 1 (single oral administration)
[7] = human, plasma, 800 mg, 800 mg q.i.d., Day 7 (repeated oral administration)
[8] = human, plasma, 1600 mg, 1600 mg q.i.d group, Day 1 (single oral administration)
[9] = human, plasma, 1600 mg, 1600 mg q.i.d, Day 7 (repeated oral administration)
[10] = human, plasma, 1600 mg, 1600 mg t.i.d. group, Day 1 (single oral administration)
[11] = human, plasma, 1600 mg, 1600 mg t.i.d., Day 7 (repeated oral administration)
[12] = Healthy, GFR >80 mL/min, n = 6, mean
[13] = Mild renal impairment, GFR 50-80 mL/min, n = 6, mean
[14] = Moderate renal impairment, GFR 30-50 mL/min, n = 4, mean
[15] = Severe renal impairment, GFR <30 mL/min, n = 6, mean

O=S(=O)([O-])CCCS(=O)(=O)[O-].[Na+].[Na+] [PDS, 1,3-propanedisulfonic acid, disodium salt]
half-life ([1]; human, plasma, oral, after single or multiple dosing, 400, 800, 1600 mg, healthy male subjects, range of means, read-out: mean half-life (T1/2)): 300 to 1200 min
AUC(0-t) [1, 4]: 1590 ng·h/mL
Cmax [1, 4]: 496 ng/mL
Tmax [1, 4]: 60 min
AUC(0-t) [1, 5]: 10500 ng·h/mL
Cmax [1, 5]: 995 ng/mL
Tmax [1, 5]: 15 min
AUC(0-t) [1, 6]: 5180 ng·h/mL
Cmax [1, 6]: 2680 ng/mL
Tmax [1, 6]: 15 min
AUC(0-t) [1, 7]: 19900 ng·h/mL
Cmax [1, 7]: 1680 ng/mL
Tmax [1, 7]: 15 min
AUC(0-t) [1, 8]: 8300 ng·h/mL
Cmax [1, 8]: 2800 ng/mL
Tmax [1, 8]: 30 min
AUC(0-t) [1, 9]: 24500 ng·h/mL
Cmax [1, 9]: 5480 ng/mL
Tmax [1, 9]: 15 min
AUC(0-t) [1, 10]: 7090 ng·h/mL
Cmax [1, 10]: 2890 ng/mL
Tmax [1, 10]: 22.5 min
AUC(0-t) [1, 11]: 25800 ng·h/mL
Cmax [1, 11]: 4890 ng/mL
Tmax [1, 11]: 30 min
dose dependence of systemic exposure (AUC0-t and Cmax) ([1]; single and repeated oral doses 400, 800, 1600 mg, healthy male subjects): approximately proportional to the administered dose
AUC(0-inf) ([2]; Healthy, GFR >80 mL/min): 5370 ng·h/mL
Cmax [2, 12]: 1240 ng/mL
AUC(0-t) [2, 12]: 3160 ng·h/mL
Tmax ([2]; Healthy, GFR >80 mL/min, n = 6, median): 30 min
AUC(0-inf) ([2]; Mild renal impairment, GFR 50-80 mL/min): 13000 ng·h/mL
Cmax [2, 13]: 3060 ng/mL
AUC(0-t) [2, 13]: 9110 ng·h/mL
Tmax ([2]; Mild renal impairment, GFR 50-80 mL/min, n = 6, median): 30 min
AUC(0-inf) ([2]; Moderate renal impairment, GFR 30-50 mL/min): 10700 ng·h/mL
Cmax [2, 14]: 2100 ng/mL
AUC(0-t) [2, 14]: 9450 ng·h/mL
Tmax ([2]; Moderate renal impairment, GFR 30-50 mL/min, n = 4, median): 30 min
AUC(0-inf) ([2]; Severe renal impairment, GFR <30 mL/min): 43100 ng·h/mL
Cmax [2, 15]: 2210 ng/mL
AUC(0-t) [2, 15]: 29200 ng·h/mL
Tmax ([2]; Severe renal impairment, GFR <30 mL/min, n = 6, median): 150 min
Tmax ([3]; Dose 400 (mg BID), Month 0 single oral dose, n = 2, mean): 180 min
Tmax ([3]; Dose 400 (mg BID), Month 24 repeated oral doses, n = 3, mean): 110 min
Tmax ([3]; Dose 800 (mg BID), Month 0 single oral dose, n = 5, mean): 177 min
Tmax ([3]; Dose 800 (mg BID), Month 24 repeated oral doses, n = 4, mean): 111 min
Tmax ([3]; Dose 1200 (mg BID), Month 0 single oral dose, n = 4, mean): 41.4 min
Tmax ([3]; Dose 1200 (mg BID), Month 24 repeated oral doses, n = 1): 40.8 min
AUC(0-t) ([3]; 400 mg BID, Month 24 repeated oral doses, n = 3, mean, read-out: AUC(0-12)): 17600 ng·h/mL
AUC(0-t) ([3]; 400 mg BID, Month 24 repeated oral doses, n = 3, mean, read-out: AUC(0-tlast)): 25700 ng·h/mL
AUC(0-t) ([3]; 400 mg, Dose 400 (mg BID), Month 0 single oral dose, n = 2, mean, read-out: AUC(0-12)): 7410 ng·h/mL
AUC(0-t) ([3]; 400 mg, Dose 400 (mg BID), Month 0 single oral dose, n = 2, mean, read-out: AUC(0-tlast)): 11700 ng·h/mL
Cmax ([3]; 400 mg, Dose 400 (mg BID), Month 24 repeated oral doses, n = 3, mean): 2160 ng/mL
Cmax ([3]; 400 mg, Dose 400 (mg BID, ClCr 20-30 mL/min), Month 0 single oral dose, n = 2, mean): 841 ng/mL
Cmax ([3]; 800 mg BID, Month 24 repeated oral doses, n = 4, mean): 1900 ng/mL
AUC(0-t) ([3]; 800 mg BID, Month 24 repeated oral doses, n = 4, mean, read-out: AUC(0-12)): 13700 ng·h/mL
AUC(0-t) ([3]; 800 mg BID, Month 24 repeated oral doses, n = 4, mean, read-out: AUC(0-tlast)): 21200 ng·h/mL
AUC(0-t) ([3]; 800 mg, Dose 800 (mg BID), Month 0 single oral dose, n = 5, mean, read-out: AUC(0-12)): 5950 ng·h/mL
AUC(0-t) ([3]; 800 mg, Dose 800 (mg BID), Month 0 single oral dose, n = 5, mean, read-out: AUC(0-tlast)): 9810 ng·h/mL
Cmax ([3]; 800 mg, Dose 800 (mg BID, ClCr 30-80 mL/min), Month 0 single oral dose, n = 5, mean): 812 ng/mL
Cmax ([3]; 1200 mg BID, Month 24 repeated oral doses, n = 1): 637 ng/mL
AUC(0-t) ([3]; 1200 mg BID, Month 24 repeated oral doses, n = 1, read-out: AUC(0-12)): 4930 ng·h/mL
AUC(0-t) ([3]; 1200 mg BID, Month 24 repeated oral doses, n = 1, read-out: AUC(0-tlast)): 9140 ng·h/mL
AUC(0-t) ([3]; 1200 mg, Dose 1200 (mg BID), Month 0 single oral dose, n = 4, mean, read-out: AUC(0-12)): 4210 ng·h/mL
AUC(0-t) ([3]; 1200 mg, Dose 1200 (mg BID), Month 0 single oral dose, n = 4, mean, read-out: AUC(0-tlast)): 5630 ng·h/mL
Cmax ([3]; 1200 mg, Dose 1200 (mg BID, ClCr >80 mL/min), Month 0 single oral dose, n = 4, mean): 867 ng/mL
half-life ([3]; read-out: mean T1/2 calculated based on the accumulation factor (converted)): 900 min
half-life ([3]; read-out: range of T1/2 calculated based on the accumulation factor): 600 to 1440 min
